Converted amounts (≈) assume the structure as drawn. Read-outs that look alike come from different tables or passages of the source.
Experiments:
Electric-eel AChE = target: T1, Electric-eel AChE (Electrophorus electricus, UniProt O42275); experiment: biochemical; settings: for inhibition at 6.25 µM: read-out: % Inhibition 6.25μM; for inhibition at 12.5 µM: read-out: % Inhibition 12.5μM; for inhibition at 25 µM: read-out: % Inhibition 25μM; for inhibition at 50 µM: read-out: % Inhibition 50μM
T1 construct: purchased Sigma
Method: The reaction mixture contained 150 μL of (100 mM) sodium phosphate buffer (pH 8.0), 10 μL of 5,5-Dithiobis-(2-nitrobenzoic acid) (DTNB, Sigma), 10 μL of test-extract solution and 20 μL of acetyl cholinesterase solution (Electric-eel AChE- Sigma) were mixed and incubated for 15 min (37 °C) followed by the addition of 10ml of acetylthiocholine (Sigma) to initiate the reaction. Hydrolysis of acetylthiocholine was monitored by the formation of yellow 5-thio-2- nitrobenzoate anion measured by UV- Vis Shimadzu spectrophotometer-USA at a wavelength of 412 nm (15 min).
Statistical analysis: reactions were carried out in triplicates and the data were expressed as mean ± SEM. The inhibitory concentration (IC50) of the total extract and each compound, was graphically evaluated by a non-linear regression method using Graph Pad Prism (Ver. 5.0) software.

[1] = DPPH radical scavenging assay
[2] = Superoxide anion scavenging assay
[3] = table, mean ± SEM, n = 3, read-out: IC50

T1 sequence (O42275 24-633): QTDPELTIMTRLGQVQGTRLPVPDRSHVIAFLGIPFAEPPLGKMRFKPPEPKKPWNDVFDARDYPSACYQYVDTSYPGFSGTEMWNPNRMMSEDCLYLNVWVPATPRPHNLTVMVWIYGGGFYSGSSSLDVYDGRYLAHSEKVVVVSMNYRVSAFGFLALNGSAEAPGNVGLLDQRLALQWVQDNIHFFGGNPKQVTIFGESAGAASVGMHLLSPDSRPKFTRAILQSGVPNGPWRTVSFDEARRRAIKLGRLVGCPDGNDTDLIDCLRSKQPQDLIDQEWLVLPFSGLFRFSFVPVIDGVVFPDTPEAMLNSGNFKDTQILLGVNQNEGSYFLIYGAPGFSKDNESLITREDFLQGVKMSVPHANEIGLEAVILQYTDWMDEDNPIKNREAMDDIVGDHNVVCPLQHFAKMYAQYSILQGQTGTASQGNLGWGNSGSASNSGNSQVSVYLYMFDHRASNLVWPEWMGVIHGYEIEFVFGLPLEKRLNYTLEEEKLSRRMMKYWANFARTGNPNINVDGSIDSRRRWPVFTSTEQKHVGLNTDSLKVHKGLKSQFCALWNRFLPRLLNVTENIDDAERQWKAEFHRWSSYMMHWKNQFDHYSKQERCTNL

For `Oc1cc(O)c2c(c1)OC(c1ccc(O)c(O)c1)C(O)C2` (single isomer, unassigned; (+)) [Compound 1, (+)-catechin], the inhibition at 6.25 µM (Electric-eel AChE; 6.25μM, mean ± SEM, n = 3) was 4.6 ± 1%, the inhibition at 12.5 µM (Electric-eel AChE; 12.5μM, mean ± SEM, n = 3) was 16.2 ± 2.4% and the inhibition at 25 µM (Electric-eel AChE; 25μM, mean ± SEM, n = 3) was 32.5 ± 2.5%. It also gave an inhibition at 50 µM (Electric-eel AChE; 50μM, mean ± SEM, n = 3) of 70.3 ± 1.2% and an IC50 (Electric-eel AChE; [3]) of 33.61 ± 0.0295 µM.
Work on `Oc1cc(O)c2c(c1)O[C@H](c1ccc(O)c(O)c1)[C@H](O)C2` [Compound 2, (-)-epicatechin] yielded an inhibition at 6.25 µM (Electric-eel AChE; 6.25μM, mean ± SEM, n = 3) of 4.7 ± 0.7%, an inhibition at 12.5 µM (Electric-eel AChE; 12.5μM, mean ± SEM, n = 3) of 19.6 ± 2.6% and an inhibition at 25 µM (Electric-eel AChE; 25μM, mean ± SEM, n = 3) of 33.7 ± 1.2%. The inhibition at 50 µM (Electric-eel AChE; 50μM, mean ± SEM, n = 3) was 73.6 ± 1.8% and the IC50 (Electric-eel AChE; [3]) was 31.62 ± 0.04 µM.
For `O=c1c(O[C@@H]2O[C@H](CO)[C@@H](O)[C@H](O)[C@H]2O)c(-c2ccc(O)cc2)oc2cc(O)cc(O)c12` [Compound 3, kaempferol 3-o-β-D-glucoside], the IC50 (Electric-eel AChE) was 29.03 ± 0.0155 µM, the inhibition at 6.25 µM (Electric-eel AChE) was 3.7 ± 0.6% and the inhibition at 12.5 µM (Electric-eel AChE) was 14.6 ± 1.2%. For the same molecule, the inhibition at 25 µM (Electric-eel AChE) was 39.4 ± 0.8% and the inhibition at 50 µM (Electric-eel AChE) was 79.3 ± 0.8%.
Work on `O=c1c(O[C@@H]2O[C@H](CO)[C@@H](O)[C@H](O)[C@H]2O)c(-c2ccc(O)c(O)c2)oc2cc(O)cc(O)c12` [Compound 5, quercetin-3-O-β-D-gulucopyranoside] yielded an IC50 (Electric-eel AChE) of 31.72 ± 0.017 µM, an inhibition at 6.25 µM (Electric-eel AChE) of 3.9 ± 1% and an inhibition at 12.5 µM (Electric-eel AChE) of 14.4 ± 0.9%. The inhibition at 25 µM (Electric-eel AChE) was 36.3 ± 1.6% and the inhibition at 50 µM (Electric-eel AChE) was 72.8 ± 2.6%.
`CC1OC(OCC2OC(Oc3c(-c4ccc(O)cc4)oc4cc(O)cc(O)c4c3=O)C(O)C(O)C2O)C(O)C(O)C1O` (stereo not shown) [Compound 8, Kaempferol 3-o-robinobioside] gave an inhibition at 6.25 µM (Electric-eel AChE; 6.25μM, mean ± SEM, n = 3) of 1.5 ± 0.8%, an inhibition at 12.5 µM (Electric-eel AChE; 12.5μM, mean ± SEM, n = 3) of 4.4 ± 0.9% and an inhibition at 25 µM (Electric-eel AChE; 25μM, mean ± SEM, n = 3) of 19.9 ± 1.8%. The inhibition at 50 µM (Electric-eel AChE; 50μM, mean ± SEM, n = 3) was 59.3 ± 2.9% and the IC50 (Electric-eel AChE; [3]) was 43.13 ± 0.13 µM.
In the case of `O=C1O[C@H]([C@@H](O)CO)C(O)=C1O` [ascorbic acid], the “IC50, free radical scavenging activity (DPPH assay)” value [1] is reported as 5.6 µg/mL (≈ 31.8 µM).
With `CN(CCCCCCN(C)C(=O)Oc1ccc[n+](C)c1)C(=O)Oc1ccc[n+](C)c1` [distigmine bromide, reference compound] the IC50 (Electric-eel AChE) was 26.83 ± 0.02 µM.
For `O=c1c(O)c(-c2ccc(O)c(O)c2)oc2cc(O)cc(O)c12` [quercetin], the “IC50, superoxide anion radical inhibitory activity” value [2] was 45.3 ± 1.6 µg/mL (≈ 150 µM).

Source: publication PMC7749390, “Neuroprotective activity of Ulmus pumila L. in Alzheimer's disease in rats; role of neurotrophic factors” (Heliyon, 2020)
